From patent US20250255876A1, “COMPOSITIONS AND METHODS FOR CANCER TREATMENT” (ARIEL SCIENTIFIC INNOVATIONS LTD., priority 2021, published 2025)
Entries after “also recorded” stand apart in the source; their conditions may differ.

Legend:
[1] = target: MAD2L2 (Homo sapiens, UniProt Q9UI95); test: Field Effect Biosensing (FEB) binding assay; parameters: made in house; host or cells: E. coli BL21 Star
Experimental: E. coli BL21 Star cells were transfected with GST-MAD2L2 vector. Protein induction was done for 4 hours in 30° C., with 1 mM IPTG. Purification was done according to standard GST protocol.
The binding kinetics of MAD2L2 to the small molecule compounds were measured by the Field Effect Biosensing (FEB) Agile R100 label-free binding assay (Nanomedical Diagnostics Inc), following their standard protocol. Briefly, 500 nM of purified MAD2L2 was immobilized on a graphene sensor chip through amine groups. The current baseline level for the chip was recorded in PBS. Next, PBS was aspirated, and the changes in the baseline current induced by 50 μl of 1, 10, 20, 30, 40 and 50 μM droplets of the tested compound were recorded. KD values were calculated by the DataLine 2.0 software by either a Hill equation fit or by using the kon and koff values at a single concentration. The KD values obtained by these two methods were almost identical.
In order to validate that MAD2L2 is a direct target of c #2 and c #3, the inventors tested the compounds' binding kinetics to a recombinant protein by Field Effect Biosensing (FEB) technology. Briefly, purified GST-MAD2L2 was immobilized onto a graphite chip, and the current across the chip is measured to determine the baseline current. […] The Kon and Koff of the interaction were measured over time and were used to calculate the KD. […]

[2] = test system: B16F10 cells; test: Colony survival assay, B16F10 cells; type: cell-based, mouse
Experimental: (14B) Colony survival assay of H1975 cell line. (14C) Colony survival assay of A549 cell line. (14D) Colony survival assay of B16F10 cell line. All cell lines were treated with 50 μM c #3 and the indicated concentration of cisplatin for 48 h, then growth media was replaced with normal growth media with no compound. Cells were allowed to recover 4-5 days before staining. For all cell lines, colony survival assay n=3 independent experiments, SD=1. P value was calculated by two-way ANOVA multiple comparison. IC50 was calculated using linear regression for H1975 and A549, and sigmoidal regression for B16F10.
Colony survival assay to compare the relative survival rate of cells treated with cisplatin alone, or with combined treatment of cisplatin and 50 μM of compound 3 (see FIG. 1). Molecule presented preliminary promising results, We tested compound 3 (c #3) on different cancer cell lines: two lung cancer cell lines, (1) human non-small cell lung carcinoma H1975 cells, (2) epithelial lung adenocarcinoma A549 cells, and (3) mouse aggressive melanoma B16F10 cells.

[3] = target: MAD2L2-Rev1 complex (Homo sapiens, UniProt Q9UI95); test: Proximity ligation assay (PLA) of MAD2L2-Rev1 binding; type: cell-based
Experimental: FIG. 16 is a bar graph showing that c #3 reduces Rev1-MAD2L2 interaction. PLA on cells treated with 10 μM cisplatin and 100 μM of c #3 for 24 h. In each analyzed field, cells and foci were counted separately and the ratio of foci/cell was calculated. Each dot represents the average of foci/cell in one analyzed field. SD=1. The P-value was calculated by a one-tailed t-test.
#3 disturbs MAD2L2-Rev1 complex formation. Detection of MAD2L2-Rev1 binding using the proximity ligation assay (PLA), which allows endogenous detection of protein-protein interactions. To enrich for MAD2L2-Rev1 foci, cells were co-treated with 10 μM cisplatin and 100 μM c #3 for 24h. Next, the PLA reaction was performed and foci, representing the MAD2L2-Rev1 complex, were counted.

[4] = test system: γH2AX foci in B16F10 cells; test: γH2AX foci immunofluorescence, B16F10 cells; type: cell-based, mouse
Experimental: FIGS. 15A-15B3 present micrographs and graphs showing that c #3 increases DNA damage after combined treatment. (15A). Representative figures of TH2AX in A549 cells (left panel), H1975 (middle panel) and B16F10 (right panel) with different treatments as indicated. Quantification of A549 (15B1), H1975(15B2), and B16F10 cells(15B3)′ foci/cell in each treatment. The total number of cells scored is indicated. Error bars=1 SD, P-value was calculated by two-tailed t-test. In all experiments, A549 cells were treated with 10 μM cisplatin and H1975 and B16F10 cells with 5 μM cisplatin. All cell lines were co-treated with 50 μM of c #3. Cells were co-treated for 16 h before analysis.SD=1, The P-value was calculated using a one-tailed t-test.
Combined treatment of cisplatin with c #3 correlates with an increase in DNA damage. Levels of γ-H2AX foci, a marker for DNA double-strand breaks, were compared in H1975, A549 and B16F10 cell lines.

Chain of MAD2L2 (Q9UI95 whole entry): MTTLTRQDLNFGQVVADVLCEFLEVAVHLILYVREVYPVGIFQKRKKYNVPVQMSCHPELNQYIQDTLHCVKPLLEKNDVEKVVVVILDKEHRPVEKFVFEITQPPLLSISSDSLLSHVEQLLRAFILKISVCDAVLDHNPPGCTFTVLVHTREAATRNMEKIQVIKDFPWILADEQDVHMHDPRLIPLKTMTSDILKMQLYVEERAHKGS
Chain of MAD2L2-Rev1 complex (Q9UI95 whole entry, one chain of several): as the sequence (Q9UI95 whole entry) above

## Cc1oc(-c2ccco2)nc1CC(=O)N[C@@H](C(=O)O)c1ccccc1 [Compound 3]
[1]; from FEB KD values, listed as c #3
  affinity to MAD2L2 compared with c #2: approximately seven-fold higher; also recorded: sevenfold higher
[1]; purified GST-MAD2L2 immobilized on chip, 1-50 μM compound
  Kd: 44.9 µM
[2]; B16F10, 50 μM compound alone
  toxicity, compound alone: caused no toxicity
[2]; B16F10, cisplatin + 50 μM c #3, 48 h
  sensitization to cisplatin: sensitization to cisplatin treatment
[3]; 10 μM cisplatin + 100 μM c #3, 24 h, compared to cisplatin alone
  ratio of MAD2L2-Rev1 PLA foci per cell, co-treatment: reduced ratio of foci per cell
[3]; c #3 alone compared to DMSO
  MAD2L2-Rev1 complex formation (PLA), c #3 alone: no effect on complex formation when DNA-damage is not induced
[4]; B16F10, 5 μM cisplatin + 50 μM c #3, 16 h
  increase in γ-H2AX foci/cell in co-treated cells: 2 fold
[4]; B16F10, c #3 alone
  γ-H2AX signal, c #3 alone: no effect on the γ-H2AX signal
